Results published in PMC4022860, “Fragments of Bacterial Endoglycosidase S and Immunoglobulin G Reveal Subdomains of Each That Contribute to Deglycosylation” (The Journal of Biological Chemistry, 2014).

Target: T1, EndoS CBM (carbohydrate binding module of endoglycosidase S) (Streptococcus pyogenes, UniProt Q99Y92)
T1 construct: isolated CBM domain, residues 761-924, C-terminal hexahistidine tag (pET303), 15N-labelled, expressed in E. coli BL21(DE3)
Assay: 1H, […] HSQC NMR titration
Details: 0.15 mM 15N-CBM; 62.5 mM to 2 M ligand; 10 mM BisTris, pH 6.5, 15 mM NaCl, 37 °C

T1 sequence (Q99Y92 761-924): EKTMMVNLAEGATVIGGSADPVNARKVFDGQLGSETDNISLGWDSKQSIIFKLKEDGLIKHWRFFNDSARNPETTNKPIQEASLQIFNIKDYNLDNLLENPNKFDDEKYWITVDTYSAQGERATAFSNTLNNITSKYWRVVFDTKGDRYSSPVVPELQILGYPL

SMILES: OC[C@H]1OC(O)[C@H](O)[C@@H](O)[C@H]1O (stereo partly drawn) [D-galactose]
- 1H,15N HSQC NMR titration: four distinct peaks appeared upon D-galactose titration, which were visible from the lowest titration point
